According to patent US20230085307A1, “PYRIDAZINONE COMPOUND AND HERBICIDE” (NISSAN CHEMICAL CORPORATION, priority 2019, published 2023):

Assays:
velvetleaf [1] = test: Test Example 4: herbicidal effect by soil treatment (Table 19, symbol M); type: in vivo, velvetleaf (Abutilon theophrasti); conditions: amount of applied herbicide 320 g/ha
How it was run: (§1)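 Applied as a water-diluted emulsion, the compound was sprayed onto soil covering newly sown seeds. Evaluation came three weeks after application, in a greenhouse held at 25° C. to 30° C.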

barnyard grass [2] = test: Test Example 5: herbicidal effect by foliage application, plastic box (Table 20, symbol H); type: in vivo, barnyard grass (Echinochloa crus-galli); conditions: evaluated three weeks after application
How it was run: (§2)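 Sow seeds spot-wise in sterilized diluvial soil; cover with ~1.5 cm soil. Grow 14 days in greenhouse, 25° C. to 30° C. Spray foliage with emulsion diluted to predetermined amount. Rate effect after 3 weeks.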

green foxtail [3] = test: Test Example 5: herbicidal effect by foliage application, plastic box (Table 20, symbol G); type: in vivo, green foxtail (Setaria viridis); conditions: evaluated three weeks after application
How it was run: as §2

Italian ryegrass [4] = test: Test Example 5: herbicidal effect by foliage application, plastic box (Table 20, symbol K); type: in vivo, Italian ryegrass (Lolium multiflorum); conditions: evaluated three weeks after application
How it was run: as §2

Japanese bulrush = test: Test Example 1: herbicidal activity, application before weed generation under submerged conditions (Table 16, symbol B); type: in vivo, Japanese bulrush (Schoenoplectus juncoides)
How it was run: (§3)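 Submerged Wagner pots (alluvial soil, 4 cm water) sown with weed seeds and planted with 2.5-leaf rice seedlings; emulsifiable concentrate diluted in water applied to water surface on sowing day. Held in greenhouse at 25-30 °C; injury scored 0-5 by herbicidal rate after three weeks.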

chickweed [5] = test: Test Example 5: herbicidal effect by foliage application, plastic box (Table 20, symbol P); type: in vivo, common chickweed (Stellaria media); conditions: evaluated three weeks after application
How it was run: as §2

Chinese sprangletop = test: Test Example 3: herbicidal effect by foliage application, Wagner pot (Table 18, symbol D); type: in vivo, chinese sprangletop (Leptochloa chinensis)
How it was run: (§4)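 Plants were sown in alluvial soil held under 0.1–0.5 cm standing water and grown 14 days in a greenhouse at 25–30 °C. An emulsifiable formulation, water-diluted to the set dose, was then sprayed onto the foliage, and effects were scored three weeks later using previously defined criteria.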

windgrass [6] = test: Test Example 4: herbicidal effect by soil treatment (Table 19, symbol L); type: in vivo, windgrass (Apera spica-venti); conditions: amount of applied herbicide 320 g/ha
How it was run: as §1

barnyard grass [7] = test: Test Example 3: herbicidal effect by foliage application, Wagner pot (Table 18, symbol H); type: in vivo, barnyard grass (Echinochloa crus-galli)
How it was run: as §4

blackgrass [8] = test: Test Example 5: herbicidal effect by foliage application, plastic box (Table 20, symbol J); type: in vivo, blackgrass (Alopecurus myosuroides); conditions: evaluated three weeks after application
How it was run: as §2

blackgrass [9] = test: Test Example 4: herbicidal effect by soil treatment (Table 19, symbol J); type: in vivo, blackgrass (Alopecurus myosuroides); conditions: amount of applied herbicide 320 g/ha
How it was run: as §1

Italian ryegrass [10] = test: Test Example 4: herbicidal effect by soil treatment (Table 19, symbol K); type: in vivo, Italian ryegrass (Lolium multiflorum); conditions: amount of applied herbicide 320 g/ha
How it was run: as §1

southern crabgrass [11] = test: Test Example 5: herbicidal effect by foliage application, plastic box (Table 20, symbol F); type: in vivo, southern crabgrass (Digitaria ciliaris); conditions: evaluated three weeks after application
How it was run: as §2

persian speedwell = test: Test Example 5: herbicidal effect by foliage application, plastic box (Table 20, symbol R); type: in vivo, Persian speedwell (Veronica persica); conditions: evaluated three weeks after application
How it was run: as §2

oval-leafed pondweed = test: Test Example 1: herbicidal activity, application before weed generation under submerged conditions (Table 16, symbol C); type: in vivo, oval-leafed pondweed (Monochoria vaginalis)
How it was run: as §3

southern crabgrass [12] = test: Test Example 4: herbicidal effect by soil treatment (Table 19, symbol F); type: in vivo, southern crabgrass (Digitaria ciliaris); conditions: amount of applied herbicide 320 g/ha
How it was run: as §1

velvetleaf [13] = test: Test Example 5: herbicidal effect by foliage application, plastic box (Table 20, symbol M); type: in vivo, velvetleaf (Abutilon theophrasti); conditions: evaluated three weeks after application
How it was run: as §2

late watergrass = test: Test Example 1: herbicidal activity, application before weed generation under submerged conditions (Table 16, symbol A); type: in vivo, late watergrass (Echinochloa oryzicola)
How it was run: as §3

wild oat [14] = test: Test Example 4: herbicidal effect by soil treatment (Table 19, symbol I); type: in vivo, wild oat (Avena fatua); conditions: amount of applied herbicide 320 g/ha
How it was run: as §1

redroot pigweed [15] = test: Test Example 5: herbicidal effect by foliage application, plastic box (Table 20, symbol N); type: in vivo, redroot pigweed (Amaranthus retroflexus); conditions: evaluated three weeks after application
How it was run: as §2

barnyard grass [16] = test: Test Example 4: herbicidal effect by soil treatment (Table 19, symbol H); type: in vivo, barnyard grass (Echinochloa crus-galli); conditions: amount of applied herbicide 320 g/ha
How it was run: as §1

false cleavers = test: Test Example 4: herbicidal effect by soil treatment (Table 19, symbol Q); type: in vivo, false cleavers (Galium spurium); conditions: amount of applied herbicide 320 g/ha
How it was run: as §1

lambsquarters [17] = test: Test Example 5: herbicidal effect by foliage application, plastic box (Table 20, symbol O); type: in vivo, lambsquarters (Chenopodium album); conditions: evaluated three weeks after application
How it was run: as §2

lambsquarters [18] = test: Test Example 4: herbicidal effect by soil treatment (Table 19, symbol O); type: in vivo, lambsquarters (Chenopodium album); conditions: amount of applied herbicide 320 g/ha
How it was run: as §1

windgrass [19] = test: Test Example 5: herbicidal effect by foliage application, plastic box (Table 20, symbol L); type: in vivo, windgrass (Apera spica-venti); conditions: evaluated three weeks after application
How it was run: as §2

redroot pigweed [20] = test: Test Example 4: herbicidal effect by soil treatment (Table 19, symbol N); type: in vivo, redroot pigweed (Amaranthus retroflexus); conditions: amount of applied herbicide 320 g/ha
How it was run: as §1

rice flat sedge = test: Test Example 3: herbicidal effect by foliage application, Wagner pot (Table 18, symbol E); type: in vivo, rice flat sedge (Cyperus iria)
How it was run: as §4

chickweed [21] = test: Test Example 4: herbicidal effect by soil treatment (Table 19, symbol P); type: in vivo, common chickweed (Stellaria media); conditions: amount of applied herbicide 320 g/ha
How it was run: as §1

green foxtail [22] = test: Test Example 4: herbicidal effect by soil treatment (Table 19, symbol G); type: in vivo, green foxtail (Setaria viridis); conditions: amount of applied herbicide 320 g/ha
How it was run: as §1

wild oat [23] = test: Test Example 5: herbicidal effect by foliage application, plastic box (Table 20, symbol I); type: in vivo, wild oat (Avena fatua); conditions: evaluated three weeks after application
How it was run: as §2

[24] = foliage application, AAH 320 g/ha
[25] = amount of applied herbicide 320 g/ha
[26] = amount of applied herbicide 320 g/ha, foliage application after 14-day growth

Cc1nn(C)c(=O)c(-c2c(-c3ccc(CSCC(F)F)cc3)sc3ccc(F)cc23)c1O [2-330]
herbicidal effect on M: velvetleaf (velvetleaf [1]): 1 (Herbicidal rate of 5% or more and less than 20%)
H: barnyard grass, herbicidal effect (criteria 0-5) (barnyard grass [2]; [24]): 5 (Herbicidal rate of 90% or more (almost completely withered))
G: green foxtail, herbicidal effect (criteria 0-5) (green foxtail [3]; [24]): 5 (Herbicidal rate of 90% or more (almost completely withered))
K: Italian ryegrass, herbicidal effect (criteria 0-5) (Italian ryegrass [4]; [24]): 5 (Herbicidal rate of 90% or more (almost completely withered))
Herbicidal effect on B: Japanese bulrush (grade 0-5) (Japanese bulrush; 320 g/ha applied herbicide): 0 (Herbicidal rate of 5% or less (almost no effect))
P: chickweed, herbicidal effect (criteria 0-5) (chickweed [5]; [24]): 5 (Herbicidal rate of 90% or more (almost completely withered))
herbicidal effect on D: Chinese sprangletop (Chinese sprangletop; [25]): 2 (Herbicidal rate of 20% or more and less than 40%)
herbicidal effect on L: windgrass (windgrass [6]): 0 (Herbicidal rate of 5% or less (almost no effect))
herbicidal effect on H: barnyard grass (barnyard grass [7]; [25]): 5 (Herbicidal rate of 90% or more (almost completely withered))
J: blackgrass, herbicidal effect (criteria 0-5) (blackgrass [8]; [24]): 4 (Herbicidal rate of 70% or more and less than 90%)
herbicidal effect on J: blackgrass (blackgrass [9]): 0 (Herbicidal rate of 5% or less (almost no effect))
herbicidal effect on K: Italian ryegrass (Italian ryegrass [10]): 4 (Herbicidal rate of 70% or more and less than 90%)
F: southern crabgrass, herbicidal effect (criteria 0-5) (southern crabgrass [11]; [24]): 5 (Herbicidal rate of 90% or more (almost completely withered))
R: persian speedwell, herbicidal effect (criteria 0-5) (persian speedwell; [24]): 5 (Herbicidal rate of 90% or more (almost completely withered))
Herbicidal effect on C: oval-leafed pondweed (grade 0-5) (oval-leafed pondweed; 320 g/ha applied herbicide): 0 (Herbicidal rate of 5% or less (almost no effect))
herbicidal effect on F: southern crabgrass (southern crabgrass [12]): 3 (Herbicidal rate of 40% or more and less than 70%)
M: velvetleaf, herbicidal effect (criteria 0-5) (velvetleaf [13]; [24]): 5 (Herbicidal rate of 90% or more (almost completely withered))
Herbicidal effect on A: late watergrass (grade 0-5) (late watergrass; 320 g/ha applied herbicide): 3 (Herbicidal rate of 40% or more and less than 70%)
herbicidal effect on I: wild oat (wild oat [14]): 0 (Herbicidal rate of 5% or less (almost no effect))
N: redroot pigweed, herbicidal effect (criteria 0-5) (redroot pigweed [15]; [24]): 5 (Herbicidal rate of 90% or more (almost completely withered))
herbicidal effect on H: barnyard grass (barnyard grass [16]): 2 (Herbicidal rate of 20% or more and less than 40%)
herbicidal effect on Q: false cleavers (false cleavers): 0 (Herbicidal rate of 5% or less (almost no effect))
O: lambsquarters, herbicidal effect (criteria 0-5) (lambsquarters [17]; [24]): 5 (Herbicidal rate of 90% or more (almost completely withered))
herbicidal effect on O: lambsquarters (lambsquarters [18]): 3 (Herbicidal rate of 40% or more and less than 70%)
L: windgrass, herbicidal effect (criteria 0-5) (windgrass [19]; [24]): 5 (Herbicidal rate of 90% or more (almost completely withered))
herbicidal effect on N: redroot pigweed (redroot pigweed [20]): 4 (Herbicidal rate of 70% or more and less than 90%)
herbicidal effect on E: rice flat sedge (rice flat sedge; [25]): 4 (Herbicidal rate of 70% or more and less than 90%)
herbicidal effect on P: chickweed (chickweed [21]): 0 (Herbicidal rate of 5% or less (almost no effect))
herbicidal effect on G: green foxtail (green foxtail [22]): 1 (Herbicidal rate of 5% or more and less than 20%)
I: wild oat, herbicidal effect (criteria 0-5) (wild oat [23]; [24]): 4 (Herbicidal rate of 70% or more and less than 90%)

Cc1nn(C)c(=O)c(-c2c(-c3ccc(C(F)(F)F)cc3)sc3c(C)cccc23)c1O [4-126]
Herbicidal effect by soil treatment, M: velvetleaf (velvetleaf [1]): 0 (Herbicidal rate of 5% or less (almost no effect))
Herbicidal effect by foliage application, H: barnyard grass (barnyard grass [2]; [26]): 0 (Herbicidal rate of 5% or less (almost no effect))
Herbicidal effect by foliage application, G: green foxtail (green foxtail [3]; [26]): 0 (Herbicidal rate of 5% or less (almost no effect))
Herbicidal effect by foliage application, K: Italian ryegrass (Italian ryegrass [4]; [26]): 4 (Herbicidal rate of 70% or more and less than 90%)
Herbicidal effect, B: Japanese bulrush (Japanese bulrush; [25]): 0 (Herbicidal rate of 5% or less (almost no effect))
Herbicidal effect by foliage application, P: chickweed (chickweed [5]; [26]): 5 (Herbicidal rate of 90% or more (almost completely withered))
herbicidal effect on Chinese sprangletop (D) (Chinese sprangletop; 320 g/ha): 0 (Herbicidal rate of 5% or less (almost no effect))
Herbicidal effect by soil treatment, L: windgrass (windgrass [6]): 0 (Herbicidal rate of 5% or less (almost no effect))
herbicidal effect on barnyard grass (H) (barnyard grass [7]; 320 g/ha): 3 (Herbicidal rate of 40% or more and less than 70%)
Herbicidal effect by foliage application, J: blackgrass (blackgrass [8]; [26]): 3 (Herbicidal rate of 40% or more and less than 70%)
Herbicidal effect by soil treatment, J: blackgrass (blackgrass [9]): 0 (Herbicidal rate of 5% or less (almost no effect))
Herbicidal effect by soil treatment, K: Italian ryegrass (Italian ryegrass [10]): 1 (Herbicidal rate of 5% or more and less than 20%)
Herbicidal effect by foliage application, F: southern crabgrass (southern crabgrass [11]; [26]): 0 (Herbicidal rate of 5% or less (almost no effect))
Herbicidal effect by foliage application, R: persian speedwell (persian speedwell; [26]): 5 (Herbicidal rate of 90% or more (almost completely withered))
Herbicidal effect, C: oval-leafed pondweed (oval-leafed pondweed; [25]): 0 (Herbicidal rate of 5% or less (almost no effect))
Herbicidal effect by soil treatment, F: southern crabgrass (southern crabgrass [12]): 0 (Herbicidal rate of 5% or less (almost no effect))
Herbicidal effect by foliage application, M: velvetleaf (velvetleaf [13]; [26]): 5 (Herbicidal rate of 90% or more (almost completely withered))
Herbicidal effect, A: late watergrass (late watergrass; [25]): 3 (Herbicidal rate of 40% or more and less than 70%)
Herbicidal effect by soil treatment, I: wild oat (wild oat [14]): 0 (Herbicidal rate of 5% or less (almost no effect))
Herbicidal effect by foliage application, N: redroot pigweed (redroot pigweed [15]; [26]): 5 (Herbicidal rate of 90% or more (almost completely withered))
Herbicidal effect by soil treatment, H: barnyard grass (barnyard grass [16]): 0 (Herbicidal rate of 5% or less (almost no effect))
Herbicidal effect by soil treatment, Q: false cleavers (false cleavers): 0 (Herbicidal rate of 5% or less (almost no effect))
Herbicidal effect by foliage application, O: lambsquarters (lambsquarters [17]; [26]): 3 (Herbicidal rate of 40% or more and less than 70%)
Herbicidal effect by soil treatment, O: lambsquarters (lambsquarters [18]): 3 (Herbicidal rate of 40% or more and less than 70%)
Herbicidal effect by foliage application, L: windgrass (windgrass [19]; [26]): 0 (Herbicidal rate of 5% or less (almost no effect))
Herbicidal effect by soil treatment, N: redroot pigweed (redroot pigweed [20]): 5 (Herbicidal rate of 90% or more (almost completely withered))
herbicidal effect on rice flat sedge (E) (rice flat sedge; 320 g/ha): 3 (Herbicidal rate of 40% or more and less than 70%)
Herbicidal effect by soil treatment, P: chickweed (chickweed [21]): 4 (Herbicidal rate of 70% or more and less than 90%)
Herbicidal effect by soil treatment, G: green foxtail (green foxtail [22]): 0 (Herbicidal rate of 5% or less (almost no effect))
Herbicidal effect by foliage application, I: wild oat (wild oat [23]; [26]): 0 (Herbicidal rate of 5% or less (almost no effect))
